In ChEMBL document CHEMBL1122294, “Synthesis and biological activity of zoapatanol analogues” (J Med Chem, 1983):
Calls of active or inactive are those of the source. The rule behind the calls is not given here.

Assays:
Type in all cases: functional, organism-based
Cavia porcellus [1] = test: Postcoital antifertility was determined in guinea pigs after injected for 3 days subcutaneously (22-24 postmating days); IA- Inactive
Cavia porcellus [2] = test: Postcoital antifertility activity was determined in guinea pigs after injected for 3 days subcutaneously (12-14 postmating days); IA- Inactive
Cavia porcellus [3] = test: Luteolytic activity was determined in guinea pigs after injected for 3 days subcutaneously (12-14 postmating days); IA- Inactive
Cavia porcellus [4] = test: Postcoital antifertility was determined in guinea pigs administered intraperitoneally as a single dose on day 22 postmating days; IA- Inactive
Cavia porcellus [5] = test: Luteolytic activity was determined in guinea pigs after injected for 3 days subcutaneously (22-24 postmating days); IA- Inactive
Cavia porcellus [6] = test: Luteolytic activity was determined in guinea pigs administered intraperitoneally as a single dose on day 22 postmating days; IA- Inactive
Cavia porcellus [7] = species: Cavia porcellus; test: Pregnancy was determined in guinea pigs after a single dose of 40 mg per guinea pig (n=1 or 2); NE- No effect
Cavia porcellus [8] = species: Cavia porcellus; test: Pregnancy was determined in guinea pigs after a single dose of 24 mg per guinea pig (n=1 or 2); NE- No effect
Cavia porcellus [9] = test: Pregnancy was determined in guinea pigs after sc administration of 50 or 75 mg per guinea pig on 22-24 postmating days (n=5); NA- No apparent effect
Cavia porcellus [10] = test: Pregnancy was determined in guinea pigs after sc administration of 40 or 50 mg per guinea pig on 12-14 postmating days (n=5); NA- No apparent effect
Cavia porcellus [11] = test: Effect on the resorption of implantation sites in guinea pigs at 100 mg/kg administered intraperitoneally; E- Fully effective; set-up: dose 100 mg/kg
Cavia porcellus [12] = test: Effect in guinea pigs at a dose of 80 mg/kg of body weight; A- Partially active; set-up: dose 80 mg/kg
Cavia porcellus [13] = test: Effect in guinea pigs at a dose of 60 mg/kg of body weight; A- Partially active; set-up: dose 60 mg/kg

SMILES	Activity (Cavia porcellus [1])	Activity (Cavia porcellus [2])	Activity (Cavia porcellus [3])	Activity (Cavia porcellus [4])	Activity (Cavia porcellus [5])	Activity (Cavia porcellus [6])	Activity (Cavia porcellus [7])	Activity (Cavia porcellus [8])	Activity (Cavia porcellus [9])	Activity (Cavia porcellus [10])	Activity (Cavia porcellus [11])	Activity (Cavia porcellus [12])	Activity (Cavia porcellus [13])
CC(C)=CCC(=O)C(C)CCCC1(C)COC(CC(=O)O)CO1 (centres undefined)	inactive	inactive	inactive	inactive	inactive	inactive	–	–	–	–	–	–	–
CC(C)/C=C/C(=O)C(C)CCCC1(C)COC(CC(=O)O)CO1 (centres undefined)	inactive	inactive	inactive	inactive	inactive	inactive	inactive	inactive	–	–	–	–	–
COC(=O)C(C)CCC[C@@]1(C)COC(CO)CO1 (some centres undefined)	inactive	inactive	inactive	inactive	inactive	inactive	–	–	inactive	inactive	–	–	–
CC(C)=CCC(=O)C(C)CCCC1(C)COC(CO)CO1 (centres undefined)	inactive	inactive	inactive	inactive	inactive	inactive	–	–	–	–	–	–	–
CC(C)=CCC(=O)C(C)CCCC1(C)OC/C(=C/CO)CCC1O (centres undefined)	–	–	–	–	–	–	–	–	–	–	Fully effective	Weak activity	Weak activity
COC(=O)C(C)CCC[C@]1(C)COC(CO)CO1 (some centres undefined)	inactive	inactive	inactive	inactive	inactive	inactive	–	–	inactive	inactive	–	–	–
